Results as given in patent publication EP1243268A1, “MEDICINAL COMPOSITION” (Nippon Shinyaku Co., Ltd., priority 1999, dated 2001).

Legend:
[1] = tested on: mesangial cells; test: Effect on anti-Thy-1 antibody nephritis in rats (count of cells in the glomeruli); format: in vivo; conditions: rats with anti-Thy-1 antibody nephritis; suspension (1mg/1ml) orally, 1 ml/100g of body weight twice a day for 7 days; kidneys removed on day 8; number of cells per glomerulus, mean ± standard error; Control 104.3±3.3, intact animal 67.25; *: P<0.05, **: P<0.01 (Dunnett's test)
From the text: Anti-Thy-1 antibody-induced nephritis is a model of glomerulonephritis constructed by utilizing the reaction between the Thy-1 antigen occurring as a membrane protein of mesangial cells and the antibody to the antigen. In this model, injuries to mesangial cells and lesions associated with mesangial cell proliferation are found. While a large majority of types of chronic glomerulonephritis in human are those of proliferative glomerulonephritis which show mesangial cell proliferation and increases in mesangial matrix as cardinal pathologic features, anti-Thy-1 antibody nephritis is regarded as a model of this human proliferative glomerulonephritis, particularly mesangial proliferative nephritis [Ishizaki et al., Acta. Pathol. Jpn., 36, 1191 (1986)].
Rats were used in groups of 7.
Preparation of the antibody was carried out in accordance with the method of Ishizaki et al. referred to above. Thus, an adjuvant suspension of rat thymocytes was prepared and subcutaneously administered to rabbits for immunization. After two booster doses, the blood was collected and the serum separated was subjected to inactivation and absorption to provide an antiserum (anti-Thy-1 antibody).
A predetermined amount of the antiserum was injected intravenously from the tail vein of rats to induce nephritis. Starting the following day after injection, a suspension (1mg/1ml) of the test drug was administered orally at a dosage of 1 ml/100g of body weight of rat twice a day for 7 days. On day 8 following the beginning of administration, the animals were sacrificed and the kidneys were removed. The kidney was fixed in Carnoy's fixative and, in the routine manner, paraffin sections were prepared and stained with hematoxyline stain for microscopy. For histopathological evaluation, the number of cells in the glomeruli (mainly mesangial cells) in each tissue preparation was counted under a light microscope. Statistical analysis was performed by Dunnett's test.

[2] = tested on: mice; test: Acute toxicity; format: in vivo; conditions: suspension orally at 300 mg/kg, general condition observed for a week after administration
Protocol: Each of the compounds in Preparation Examples 1, 5, 6, 33, 34, 39, and 48 was administered.

SMILES: Cc1ccc2c(c1)c(C(=O)N1CCN(c3ccccn3)CC1)c(-c1ccccc1)n2C.Cl [Preparation Example 1, 1-(1,5-Dimethyl-2-phenylindol-3-ylcarbonyl)-4-(2-pyridyl)piperazine hydrochloride]
- Number of mesangial cells a) [1]: 90.3±2.2*
- deaths [2]: No deaths were observed

SMILES: Cn1c(-c2ccccc2)c(C(=O)N2CC[N+]([O-])(c3ccccn3)CC2)c2ccccc21 [Preparation Example 5, 1-(1-Methyl-2-phenylindol-3-ylcarbonyl)-4-(2-pyridyl)piperazine-4-oxide]
- deaths [2]: No deaths were observed

SMILES: Cl.Cn1c(-c2ccccc2)c(C(=O)N2CCN(c3ccccn3)CC2)c2ccccc21 [Preparation Example 6, 1-(1-Methyl-2-phenylindol-3-ylcarbonyl)-4-(2-pyridyl)piperazine hydrochloride]
- deaths [2]: No deaths were observed

SMILES: Cc1ccc2c(c1)c(C(=O)N1CCN(c3cccnc3)CC1)c(-c1ccccc1)n2C.Cl.Cl [Preparation Example 33, 1-(1,5-Dimethyl-2-phenylindol-3-ylcarbonyl)-4-(3-pyridyl)piperazine dihydrochloride]
- Number of mesangial cells a) [1]: 88.5±3.7**
- deaths [2]: No deaths were observed

SMILES: Cc1ccc2c(c1)c(C(=O)N1CCN(c3ccncc3)CC1)c(-c1ccccc1)n2C.Cl [Preparation Example 34, 1-(1,5-Dimethyl-2-phenylindol-3-ylcarbonyl)-4-(4-pyridyl)piperazine hydrochloride]
- Number of mesangial cells a) [1]: 87.1±5.7**
- deaths [2]: No deaths were observed

SMILES: Cc1cc2c(C(=O)N3CCN(c4ccncc4)CC3)c(-c3ccccc3)n(C)c2cc1C.Cl [Preparation Example 39, 1-(1,5,6-Trimethyl-2-phenylindol-3-ylcarbonyl)-4-(4-pyridyl)piperazine hydrochloride]
- deaths [2]: No deaths were observed

SMILES: Cl.Cn1c(-c2ccccc2)c(C(=O)N2CCN(c3ccc([N+](=O)[O-])cn3)CC2)c2ccccc21 [Preparation Example 48, 1-(1-Methyl-2-phenylindol-3-ylcarbonyl)-4-(5-nitro-2-pyridyl)piperazine hydrochloride]
- Number of mesangial cells a) [1]: 89.2±3.1*
- deaths [2]: No deaths were observed
